Results on one molecule are retold here after PMC9781217, “Discovery of Novel and Selective G-Protein Coupled Receptor 120 (GPR120) Agonists for the Treatment of Type 2 Diabetes Mellitus” (Molecules, 2022).

Series [1] is described as follows: Pharmacokinetic analysis in C57BL/6 mice. The series is classed as in vivo. Here is the method: The pharmacokinetic profiles of 10k and 14d were obtained from C57BL/6 mice. […] The pharmacokinetic profiles traces were shown in the Supplementary Materials (Figure S1, see Supporting Materials).
Plasma was collected and precipitated using two volumes of acetonitrile containing an internal standard. This was followed by centrifugation at 15.680 g for 10 min after vortexing for 5 min. The supernatant was diluted with acetonitrile and 10 µL of the supernatant was analyzed by Waters LC-PDA-MS/MS to determine plasma drug levels. Pharmacokinetic parameters were determined using mean data from four mice at each time point. Statistical analysis of the data was performed using the DAS 2.1.1 statistical software program (BioVoice, Shanghai, China).

Series [2] has as its system C57BL/6 mice. The series is described as follows: Oral glucose tolerance test (OGTT) in normal C57BL/6 mice. It counts as in vivo. The protocol: GPR120 agonists have been reported to increase GLP-1 secretion and improve glucose tolerance in vivo [28]. […] Compound 14d was orally administered at doses of 3, 10, 30, and 100 mg/kg, 30 min before the oral glucose challenge at a dose volume of 3 g/kg. Glucose levels were measured from 30 min before glucose challenge to 120 min after the glucose challenge.
Normal male C57BL/6 mice aged 9 weeks were used for the OGTT for compound 14d. C57BL/6 mice were weighed and randomly divided into six groups (eight mice per group) after 12 h of fasting. The test compounds were dissolved in 0.5% MC and vortexed before the study initiation. […] The exact dose volume was calculated separately for each animal. Blood samples were collected via the tail tip 30 min before the compound dose, at t = 0 (immediately before glucose loading), and 15, 30, 60, and 120 min after glucose loading. Blood glucose levels were measured using blood glucose test strips (Sannuo GA-3 type; Changsha, China). Glucose values were entered into an Excel sheet and plotted using GraphPad Prism software.

Series [3] concerns the target T1, mouse GPR120 (mGPR120) (Mus musculus, UniProt Q7TMA4).
T1 sequence (Q7TMA4 1-361): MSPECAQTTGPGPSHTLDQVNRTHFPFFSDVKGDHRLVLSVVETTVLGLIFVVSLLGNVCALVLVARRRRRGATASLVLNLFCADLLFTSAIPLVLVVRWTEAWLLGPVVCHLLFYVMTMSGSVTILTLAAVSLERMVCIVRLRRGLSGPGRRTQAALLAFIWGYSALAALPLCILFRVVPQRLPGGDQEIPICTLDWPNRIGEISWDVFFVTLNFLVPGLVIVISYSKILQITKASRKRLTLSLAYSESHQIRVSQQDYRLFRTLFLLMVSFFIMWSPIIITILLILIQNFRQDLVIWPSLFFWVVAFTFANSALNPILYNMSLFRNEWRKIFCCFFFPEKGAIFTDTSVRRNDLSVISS
The series is described as follows: Calcium flux assay in CHO cells expressing mouse GPR120.
Method: (§1) A calcium flux assay was performed to assess the agonist activity of the test compounds against the hGPR120 (mGPR120) and hGPR40 (mGPR40) receptors. […] The medium in the wells was gently discarded, and the wells were washed with Hank’s balanced salt solution (HBSS; 100 μL per well). […] The cells were then washed thrice in HBSS and allowed to equilibrate for 10 min before conducting the assay. Test compounds dissolved in dimethyl sulfoxide were diluted in HBSS at various concentrations and added to Fluo-4 AM-containing cells, and intracellular Ca^2+ concentrations were measured using FlexStation3 Molecular Devices. The EC50 value of each compound was calculated using GraphPad Prism software (version 5.0; GraphPad Software, San Diego, CA, USA).

The test system of series [4] is DIO mice. In words: Anti-hyperglycemic effects (OGTT, insulin) in DIO mice. It counts as in vivo, C57BL/6 mice. The settings on record: 20 mg/kg oral. Here is the method: Blood samples were collected with retro-orbital sinus puncture, and glucose levels were measured in accordance with the OGTT in normal mice. Plasma insulin levels were measured using a mouse insulin RIA kit (Beijing North Institute of Biological Technology, Beijing, China).

The target in series [5] is mouse GPR40 (mGPR40) (Mus musculus, UniProt Q76JU9). The series is described as follows: Calcium flux assay in CHO cells expressing mouse GPR40.
mouse GPR40 (mGPR40), sequence (Q76JU9 whole entry): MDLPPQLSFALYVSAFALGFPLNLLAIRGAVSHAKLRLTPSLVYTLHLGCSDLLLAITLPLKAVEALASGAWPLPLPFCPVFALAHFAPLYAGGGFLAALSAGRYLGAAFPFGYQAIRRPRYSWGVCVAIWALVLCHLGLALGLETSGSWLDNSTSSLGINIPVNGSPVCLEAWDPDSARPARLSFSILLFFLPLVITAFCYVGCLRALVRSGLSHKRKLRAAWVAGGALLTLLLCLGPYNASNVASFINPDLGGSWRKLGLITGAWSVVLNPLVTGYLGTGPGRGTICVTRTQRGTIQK
Method: as §1
For series [6], the target named is T2, human GPR120 (hGPR120) (Homo sapiens, UniProt Q5NUL3).
T2 sequence (Q5NUL3 1-361): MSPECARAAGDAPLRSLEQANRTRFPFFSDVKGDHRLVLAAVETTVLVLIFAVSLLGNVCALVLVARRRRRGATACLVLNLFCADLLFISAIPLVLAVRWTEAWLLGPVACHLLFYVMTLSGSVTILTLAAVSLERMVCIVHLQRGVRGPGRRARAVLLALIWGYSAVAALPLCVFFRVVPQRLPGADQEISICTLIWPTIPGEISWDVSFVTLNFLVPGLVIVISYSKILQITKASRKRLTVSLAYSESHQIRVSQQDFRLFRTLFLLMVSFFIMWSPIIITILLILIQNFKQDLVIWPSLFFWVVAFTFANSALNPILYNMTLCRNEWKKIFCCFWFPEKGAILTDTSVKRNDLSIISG
The series is described as follows: Calcium flux assay in hGPR120-transfected CHO cells.
Method: as §1

The mark [7] stands for this setting: mGPR120, concentration response curve.
[8] abbreviates: hGPR120, concentration response curve.

Like-named read-outs stand apart in the source and are kept apart here.

As to `O=C(O)CCCOc1ccc(COc2cc(F)ccc2-c2ccc(F)cc2)cc1F` [Compound 14d, 4-(4-(((4,4′-difluoro-[1,1′-biphenyl]-2-yl)oxy)methyl)-2-fluorophenoxy)butanoic acid], the melting point lay in the range of 89 to 91 °C. In addition, the “metabolic stability in vivo” value in series [1] (C57BL/6 mice, pharmacokinetics, in words) is given as “excellent metabolic stability”. Moreover, in series [1] (male, mouse, plasma, po, C57BL/6 mice, 10 mg/kg gavage), the Tmax was 0.5 h. The peak level in series [1] (male, mouse, plasma, po, C57BL/6 mice, 10 mg/kg gavage, 0.5% MC, mean ± SD of four mice) (Cmax) was 2650 ± 288 ng/mL. Besides, the AUC in series [1] (male, mouse, plasma, po, C57BL/6 mice, 10 mg/kg gavage, mean ± SD of four mice) stood at 5900 ± 584 ng·h/mL. For the same molecule, the half-life in series [1] (male, mouse, plasma, po, C57BL/6 mice, 10 mg/kg gavage, mean ± SD of four mice, read-out: t1/2 (converted)) is 1.6 ± 0.4 h. Also, in series [1] (rodents, in words), the clearance entry was “low clearance” and the half-life result was “long half-life”. For the same molecule, in series [2] (30 mg/kg oral, glucose 3 g/kg, superior to TUG-891), the “blood glucose in OGTT” value is reported as “significant reduction in blood glucose”. Besides, the “dose dependence of glucose lowering and glucose AUC” value in series [2] (3, 10, 30, 100 mg/kg oral) was “dose-dependent”. In series [2] (OGTT, 30 mg/kg oral, after 120 min, compared with glucose alone, p < 0.001), the “reduction of plasma glucose AUC” value is reported as 25%. Also, in series [2] (normal C57BL/6 mice, during the experiment), the “hypoglycemia during OGTT” value is “no hypoglycemia was observed”. In addition, the hypoglycemic side effects result in series [2] (normal mice, even at a dose of 100 mg/kg) was “no hypoglycemic side effects were detected”. For the same molecule, the EC50 in series [3] is 83.2 nM. Further, in series [3] (setting [7]), the Hill slope worked out at 0.7745 and the “Hill slope (95%CI)” value was 0.5397-1.0090. The Selectivity in series [3] (mGPR120 over mGPR40) is on record as 152.6. Also, the “insulin levels 30 min after the glucose challenge” value in series [4] (compared to vehicle-treated mice) is “significantly increased insulin levels”. Further, the “glucose AUC0–120 min” value in series [4] (glucose 2 g/kg) is listed as “significantly lower than that of vehicle-treated mice”. Moreover, in series [5], the EC50 came out at 12700 nM. Also, the EC50 in series [6] stood at 37.5 nM. Further, in series [6] (setting [8]), the Hill slope was 0.9540 and the “Hill slope (95%CI)” value is 0.8259-1.0820. For the same molecule, in series [6] (hGPR120 and mGPR120), the “Agonist type from dose-dependent curves” value was “full agonist”.
